The values below come from PMC11672299, “Conjugation of Polycationic Peptides Extends the Efficacy Spectrum of β‐Lactam Antibiotics” (Advanced Science, 2024).

The structures appear in SMILES notation. Peptide text beside a SMILES is read from it. * marks the point of attachment. X1 = CC(C)(O/N=C(\C(=O)N[C@@H]1C(=O)N2C(C(=O)[O-])=C(C[n+]3ccccc3)CS[C@H]12)c1csc(N)n1)C(=O)NCCCCCCN1C(=O)CC(*)C1=O Bounds are passed on as bounds.

One experiment concerns A. bohemicus DSM 100419. Kind of experiment: MIC by broth microdilution. The settings on record: median (n = 3). The format is cell-based. The method, then: (§1) The minimum inhibitory concentration (MIC) of the β‐lactam–peptide conjugates was determined by broth microdilution as previously described.^[ [17] ^] Briefly, in cation‐adjusted MHB II medium, a twofold serial dilution of the compounds was prepared in 96‐well round‐bottom polystyrene or polypropylene microtiter plates with each well containing 50 µL. The plates were inoculated with 50 µL bacterial suspension and the final inoculum, in a total volume of 100 µL, contained 5 × 10^5 CFU mL^−1. The microplates were incubated for 20 h at 37 ± 1 °C. The lowest concentration preventing visible bacterial growth was considered the MIC value. For susceptibility testing of combinations of β‐lactamase‐inhibitors with either a β‐lactam antibiotic or a β‐lactam–peptide conjugate, fixed concentrations of the inhibitors according to the EUCAST (European Committee on Antimicrobial Susceptibility Testing) guidelines (clavulanic acid = 2 mg L^−1, avibactam = 4 mg L^−1) were used.

In a further experiment the test system is B. subtilis DSM 10. Kind of experiment: microbe, parasite or virus in culture. The experiment is classed as cell-based. The settings on record: DSM 10, 20 h. The procedure:
as §1

Experiment [1] deals with E. casseliflavus ATCC 700327. Kind of experiment: microbe, parasite or virus in culture. Particulars: ATCC 700327, 20 h. The experiment is classed as cell-based. The method, then:
as §1

In another experiment the test system is E. faecalis ATCC 29212. Briefly: microbe, parasite or virus in culture. The experiment is classed as cell-based. The settings on record: ATCC 29212, 20 h. The method, then:
as §1

The next experiment has as its system PBPs of B. subtilis. Kind of experiment: Gel‐based PBP affinity assay (Bocillin FL competition). The format is binding. The settings on record: at the concentrations tested (0.016–250 µM). The procedure: (§2) B. subtilis DSM 10 and E. faecalis ATCC 51 299 (equal to DSM 12 956) membrane protein fractions were extracted according to the protocol of Dean et al. with minor modifications.^[ [34] ^] From a growing overnight bacterial culture, 3 L of LB (Luria‐Bertani) medium or TSB (tryptic soy broth) were inoculated with B. subtilis DSM 10 and E. faecalis ATCC 51 299, respectively, to obtain an OD600 = 0.3. The cultures were grown to an OD600 = 0.6–0.8 while shaking at 37 °C and cells were harvested by centrifugation at 4000 g for 30 min at 4 °C. The resulting pellet was washed twice with pre‐cooled PBS and resuspended in 30 mL of ice‐cooled PBS. The suspension was sonicated on ice (10 cycles of 30 s at 50% power for B. subtilis; 12 cycles of 30 s at 80% power for E. faecalis; 2 min intervals between cycles) using an Omni Ruptor 4000 ultrasonic homogenizer (Omni International, Kennesaw, GA, USA). Afterwards, the suspension was centrifuged at 7000 g for 10 min at 4 °C. The clear supernatant was transferred into a 50 mL polypropylene tube and centrifuged in a Beckman Coulter centrifuge equipped with a JA‐20 fixed‐angle rotor (Beckman Coulter, Krefeld, Germany) at 50 000 g for 1 h at 4 °C. The resulting pellet was washed with ice‐cold PBS and centrifuged a second time. The pellet was resuspended in 2 mL PBS and aliquots were stored at −80 °C. The protein content was determined using Bradford reagent (VWR International, Darmstadt, Germany) and Pierce BCA (bicinchoninic acid) protein assay kits (Thermo Fisher Scientific, Waltham, MA, USA) for membrane fractions of B. subtilis and E. faecalis, respectively.
(§3) Each dilution was combined with B. subtilis (30 µg) or E. faecalis (15 µg) extracted membrane fractions. As reference samples, membrane fractions incubated with only PBS were prepared. Reaction mixtures were incubated for 20 min at 37 °C while shaking at 400 rpm. Next, Bocillin FL penicillin (Thermo Fisher Scientific, Waltham, MA, USA) was added to obtain a final concentration of 20 µM in the mixture. Samples were incubated for 30 min at 37 °C while shaking at 400 rpm. To denature the samples, 4× Laemmli sample buffer (Bio‐Rad Laboratories, Feldkirchen, Germany) was added, and the samples incubated for 10 min at 70 °C. Afterwards, the samples were centrifuged for 5 min at 13 000 rpm. Samples were separated by SDS‐PAGE using a 10% Tris‐glycine gel for 100 min at 180 V. The bands were visualized using a Typhoon FLA 9500 imager (GE Healthcare, Chicago, IL, USA) with excitation at 473 nm. The gel images were analyzed using ImageJ software. Brightness and contrast were adjusted to improve the signal‐to‐noise ratio and the background signal was subtracted over the whole image. Next, integrated density values of the gel bands were measured and Bocillin FL penicillin labeling of each PBP in antibiotic‐treated samples were set in proportion to the reference sample. IC50 values were calculated with GraphPad Prism software (version 8.0.1) using inhibitor versus normalized response variable slope and least‐squares fit. […] The mean was calculated using the IC50 values of at least two independent assays for each antibiotic.

The target in a further experiment is T1, PBP2A (Bacillus subtilis, UniProt P54488).
T1 construct: endogenous in cells; host or cells: B. subtilis DSM 10, extracted membrane protein fraction
The description is as above. The format is binding. The settings on record: B. subtilis membrane fractions, competition with Bocillin FL penicillin; compared with parent β‐lactam. The procedure: as §2, §3

Another experiment relates to PBP5. The description is as above. The experiment is classed as binding. The settings on record: PBPs from vancomycin‐resistant E. faecalis; compared with parent; at concentrations considerably higher than MICs. The procedure:
as §2, §3

In experiment [2] the test system is A. pittii Tü21‐041 (clinical isolate). Kind of experiment: microbe, parasite or virus in culture. Particulars: 20 h. The format is cell-based. The method, then:
as §1

Experiment [3] relates to C. freundii Tü21‐052 (clinical isolate). Briefly: microbe, parasite or virus in culture. The format is cell-based. Particulars: 20 h. The method, then: as §1
Experiment [4] has as its system E. coli Tü20‐025 (clinical isolate). Kind of experiment: microbe, parasite or virus in culture. The format is cell-based. Particulars: Tü20‐025 (clinical isolate, 20 h). The procedure:
as §1

For experiment [5], the system named is K. pneumoniae Tü20‐036 (clinical isolate). Kind of experiment: microbe, parasite or virus in culture. The format is cell-based. Particulars: Tü20‐036 (clinical isolate, 20 h). The procedure: as §1

T1 sequence (P54488 whole entry): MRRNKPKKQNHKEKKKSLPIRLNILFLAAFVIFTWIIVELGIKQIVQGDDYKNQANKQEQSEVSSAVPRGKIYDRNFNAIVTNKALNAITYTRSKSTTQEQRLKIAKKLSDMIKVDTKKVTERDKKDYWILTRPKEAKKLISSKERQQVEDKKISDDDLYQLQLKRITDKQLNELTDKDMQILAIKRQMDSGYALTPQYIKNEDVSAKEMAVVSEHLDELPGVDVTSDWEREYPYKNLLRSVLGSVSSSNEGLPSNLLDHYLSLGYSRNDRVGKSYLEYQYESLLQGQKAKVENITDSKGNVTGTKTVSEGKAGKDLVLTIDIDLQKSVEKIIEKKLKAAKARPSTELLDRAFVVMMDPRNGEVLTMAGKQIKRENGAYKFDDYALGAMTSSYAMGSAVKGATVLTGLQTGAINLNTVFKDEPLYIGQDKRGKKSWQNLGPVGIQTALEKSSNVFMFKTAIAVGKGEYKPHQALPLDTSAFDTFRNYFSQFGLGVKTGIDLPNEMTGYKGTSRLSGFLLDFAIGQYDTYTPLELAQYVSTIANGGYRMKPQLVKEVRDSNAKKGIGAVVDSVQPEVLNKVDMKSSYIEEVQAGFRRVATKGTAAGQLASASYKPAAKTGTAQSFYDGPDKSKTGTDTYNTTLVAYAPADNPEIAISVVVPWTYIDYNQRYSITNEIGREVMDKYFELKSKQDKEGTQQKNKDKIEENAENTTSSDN

Turning to `CC(C)(O/N=C(\C(=O)N[C@@H]1C(=O)N2C(C(=O)[O-])=C(C[n+]3ccccc3)CS[C@H]12)c1csc(N)n1)C(=O)NCCCCCCN1C(=O)CC(SC[C@H](NC(=O)[C@H](CCCCN)NC(=O)[C@H](CCCCN)NC(=O)[C@H](CCCCN)NC(=O)[C@H](CCCCN)NC(=O)[C@H](CCCCN)NC(=O)[C@H](CCCCN)NC(=O)[C@H](CCCCN)NC(=O)[C@H](CCCCN)NC(=O)[C@@H](N)CCCCN)C(N)=O)C1=O` (some centres unmarked) [CTZ-K9] (H-KKKKKKKKKC(X1)-NH2; N-terminus and C-terminus assumed), the “antimicrobial activity (rank among CTZ–peptide conjugates)” value in the experiment on A. bohemicus DSM 100419 is listed as “most potent conjugates”.
Consider `N=C(N)NCCC[C@H](NC(=O)[C@H](CCCNC(=N)N)NC(=O)[C@H](CCCNC(=N)N)NC(=O)[C@H](CCCNC(=N)N)NC(=O)[C@H](CCCNC(=N)N)NC(=O)[C@@H](N)CCCNC(=N)N)C(=O)N[C@@H](CS)C(N)=O` [R6C], for which the MIC (in the experiment with B. subtilis DSM 10; in [1]; in the experiment with E. faecalis ATCC 29212) was over 64 µg/mL each time. Besides, the “binding to the PBPs of B. subtilis” value in the experiment with PBPs of B. subtilis is “not observed”.
With `C[C@@H](O)[C@H]1C(=O)N2C(C(=O)O)=C(S[C@H]3C[C@@H](C(=O)Nc4cccc(C(=O)O)c4)N(C(=O)C4CCC(CN5C(=O)CC(SC[C@H](NC(=O)[C@H](CCCNC(=N)N)NC(=O)[C@H](CCCNC(=N)N)NC(=O)[C@H](CCCNC(=N)N)NC(=O)[C@H](CCCNC(=N)N)NC(=O)[C@H](CCCNC(=N)N)NC(=O)[C@@H](N)CCCNC(=N)N)C(N)=O)C5=O)CC4)C3)[C@H](C)[C@H]12` (some centres unmarked) [ERT-R6C], the MIC with B. subtilis DSM 10 is under 0.02 µg/mL. The “affinity to PBP2A” value on PBP2A is “higher affinity”.
Take `C[C@H]1[C@H](NC(=O)/C(=N\OC(C)(C)C(=O)NCCCCCCN2C(=O)CC(SC[C@H](NC(=O)[C@H](CCCNC(=N)N)NC(=O)[C@H](CCCNC(=N)N)NC(=O)[C@H](CCCNC(=N)N)NC(=O)[C@H](CCCNC(=N)N)NC(=O)[C@H](CCCNC(=N)N)NC(=O)[C@@H](N)CCCNC(=N)N)C(N)=O)C2=O)c2csc(N)n2)C(=O)N1S(=O)(=O)O` (some centres unmarked) [AZT-R6]: in the experiment on B. subtilis DSM 10, the MIC was found to be 0.06 µg/mL. For the same compound, the “affinity to PBP2A” value at PBP2A is on record as “higher affinity”. Also, the “binding to PBP5” value in the experiment with PBP5 was “slightly improved binding”.
As for `N=C(N)NCCC[C@H](NC(=O)[C@H](CCCNC(=N)N)NC(=O)[C@H](CCCNC(=N)N)NC(=O)[C@H](CCCNC(=N)N)NC(=O)[C@H](CCCNC(=N)N)NC(=O)[C@@H](N)CCCNC(=N)N)C(=O)N[C@@H](CSC1CC(=O)N(CCCCCCN)C1=O)C(N)=O` (some centres unmarked) [BB linker‐R6], the MIC (in [2]; in the experiment with B. subtilis DSM 10; in experiment [3]; in [1]; in experiment [4]; in the experiment on E. faecalis ATCC 29212) was over 64 µg/mL throughout. Besides, the MIC in experiment [5] is over 64 µg/mL.
